Reference: paper PMC3740399, “Carfilzomib in multiple myeloma patients with renal impairment: pharmacokinetics and safety” (Leukemia, 2013)

How the values were obtained:
[1] = set-up: species or system human; conditions: in vivo
Description: (§1) All patients who received at least one dose of carfilzomib were included in the safety population. Incidence, severity and duration of AEs, including all serious AEs and those considered to be treatment related, and shifts to or from abnormal relative to baseline in key laboratory parameters were categorized according to the National Cancer Institute's Common Terminology Criteria for Adverse Events (CTCAE) Version 3.0.[16] […] ECGs were performed in most patients to satisfy regulatory requirements, but were not required by the study protocol.

[2] = in vivo
Description: Carfilzomib was administered by IV infusion over 2–10 min on days 1, 2, 8, 9, 15 and 16 of a 28-day cycle for up to 12 cycles. The dose of carfilzomib in Cycle 1 was 15 mg/m^2. If this dose was tolerated, it was increased to 20 mg/m^2 at Cycle 2, and to 27 mg/m^2 at Cycle 3 and for all subsequent cycles as tolerated.
Blood for plasma PK analysis was collected on days 1 and 15 of Cycle 1, and on day 15 of Cycle 2, before dosing (t=0), at the end of dosing, and at 5, 15 and 30 min and 1, 1.5, 2, 4, 6 and 24 h after dosing; urine samples were collected cumulatively over 0–5 h and 5–24 h on days 1 and 15 of Cycle 1 following administration of carfilzomib to determine carfilzomib concentrations. Carfilzomib concentrations were determined using validated liquid chromatography tandem mass spectrometry (LC MS/MS) methods with a calibration range of 0.300–300 ng/ml for plasma samples and 4.0–2000 ng/ml for urine samples. Plasma concentration of carfilzomib versus time was plotted on days 1 and 15 in Cycle 1, and PK parameters were calculated using a non-compartmental constant infusion method using WinNonlin (Pharsight, Sunnyvale, CA, USA). To determine whether renal impairment affected the PK of carfilzomib, the relationship between renal function status and relevant PK parameters was evaluated. Statistical comparison (analysis of variance) of the ln-transformed dose-adjusted PK parameters was also performed between patients with normal renal function and each group of patients with renal impairment. For these parameters, 90% confidence intervals (CI) were calculated for the ratios between least squares of the mean (LSM) for each group versus the normal renal function group (Group 1). […] The primary PK parameters—apparent plasma clearance, dose-normalized AUCinf (total exposure), and the dose-normalized Cmax on day 1 and day 15 of Cycle 1—were also estimated as a function of CrCl by linear regression using a mixed-effects model (Y=β0+β1 × CrCl+β2 × Age+β3 × weight, where Y=PK parameter, β0 = intercept, and β1, β2 and β3 are slope parameters associated with CrCl, age and weight, respectively).

[3] = tested on: relapsed and/or refractory multiple myeloma; assay: Efficacy: best response (IMWG criteria with EBMT minimal response); type: in vivo, human; conditions: for Overall response rate: PR or better
Description: Patients who received at least 1 cycle of carfilzomib and had at least one post-baseline assessment for disease response were included in the efficacy analysis. Each evaluable patient's best response to treatment over the course of the study was evaluated by the investigator and sponsor using the International Myeloma Working Group Uniform Response Criteria, modified to include minimal response defined per the European Group for Blood and Marrow Transplantation.[17], [18] Responses assessed by the investigators at the end of the study are reported here. The overall response rate was defined as the proportion of PR or better responses, and the 95% Clopper-Pearson exact binomial CI was calculated. The duration of response was calculated as the time from the first evidence of a PR or better until confirmation of disease progression. Median time to progression and progression-free survival were assessed among all patients with >stable disease (s.d.). For progression-free survival, deaths due to causes other than disease progression were censored.

[4] = Urinary excretion of carfilzomib (LC MS/MS); type: in vivo, human
Description: Blood for plasma PK analysis was collected on days 1 and 15 of Cycle 1, and on day 15 of Cycle 2, before dosing (t=0), at the end of dosing, and at 5, 15 and 30 min and 1, 1.5, 2, 4, 6 and 24 h after dosing; urine samples were collected cumulatively over 0–5 h and 5–24 h on days 1 and 15 of Cycle 1 following administration of carfilzomib to determine carfilzomib concentrations. Carfilzomib concentrations were determined using validated liquid chromatography tandem mass spectrometry (LC MS/MS) methods with a calibration range of 0.300–300 ng/ml for plasma samples and 4.0–2000 ng/ml for urine samples. Plasma concentration of carfilzomib versus time was plotted on days 1 and 15 in Cycle 1, and PK parameters were calculated using a non-compartmental constant infusion method using WinNonlin (Pharsight, Sunnyvale, CA, USA). To determine whether renal impairment affected the PK of carfilzomib, the relationship between renal function status and relevant PK parameters was evaluated. Statistical comparison (analysis of variance) of the ln-transformed dose-adjusted PK parameters was also performed between patients with normal renal function and each group of patients with renal impairment. For these parameters, 90% confidence intervals (CI) were calculated for the ratios between least squares of the mean (LSM) for each group versus the normal renal function group (Group 1). […]

[5] = tested on: proteasome chymotrypsin-like activity; assay: Proteasome chymotrypsin-like activity in whole blood (RBC) and PBMC, fluorogenic substrate (LLVY-AMC) assay; type: in vivo, human
Description: Proteasome chymotrypsin-like activity was measured in whole-blood (red blood cells, RBC) and isolated peripheral blood mononuclear cell samples using a fluorogenic-based substrate assay as previously described.[15] Blood for PDn analysis was collected before carfilzomib dosing and 1 h after carfilzomib dosing on days 1, 2 and 8 of Cycle 1 and on day 1 of Cycle 2.
Figure 2 Proteasome inhibition following the first dose of carfilzomib. Proteasome activity was measured in whole-blood and peripheral blood mononuclear cells before and 1 h after the first dose of 15 mg/m^2 carfilzomib on day 1 of Cycle 1 (using LLVY-AMC substrate). Data are presented as mean activity (±s.e.m.) relative to pre-dose values for each group. The number of patient samples for each Group is noted. Group 1, normal renal function; Group 2, mild renal impairment; Group 3, moderate renal impairment; Group 4, severe renal impairment; Group 5, chronic dialysis.

[6] = Safety: treatment-emergent adverse events (CTCAE Version 3.0); type: in vivo, human; conditions: for Anemia, Grades 3/4 / Decreased hemoglobin, Grades 3/4 / Dyspnea, Grades 3/4 / Fatigue, Grades 3/4 / Hypokalemia, Grades 3/4 / Lymphopenia, Grades 3/4 / Pain, Grades 3/4 / Pneumonia, Grades 3/4 / Thrombocytopenia, Grades 3/4: number of patients
Description: as §1

[7] = All patients, n=28, patients who received dexamethasone ⩾20 mg before carfilzomib doses
[8] = All patients, n=47, all patients with response assessment
[9] = Group 1 (normal renal function), n=7, patients who received dexamethasone ⩾20 mg before carfilzomib doses
[10] = Group 1 (normal renal function), n=11, all patients with response assessment
[11] = Group 2 (mild impairment), n=8, patients who received dexamethasone ⩾20 mg before carfilzomib doses
[12] = Group 2 (mild impairment), n=11, all patients with response assessment
[13] = Group 3 (moderate impairment), n=4, patients who received dexamethasone ⩾20 mg before carfilzomib doses
[14] = Group 3 (moderate impairment), n=9, all patients with response assessment
[15] = Group 4 (severe impairment), n=5, patients who received dexamethasone ⩾20 mg before carfilzomib doses
[16] = Group 4 (severe impairment), n=8
[17] = Group 4 (severe impairment), n=8, all patients with response assessment
[18] = Group 5 (chronic dialysis), n=4, patients who received dexamethasone ⩾20 mg before carfilzomib doses
[19] = Group 5 (chronic dialysis), n=8
[20] = Group 5 (chronic dialysis), n=8, all patients with response assessment
[21] = Group 1 (normal renal function), n=12
[22] = Group 2 (mild impairment), n=12
[23] = Group 3 (moderate impairment), n=10

CC(C)C[C@H](NC(=O)[C@H](CCc1ccccc1)NC(=O)CN1CCOCC1)C(=O)N[C@@H](Cc1ccccc1)C(=O)N[C@@H](CC(C)C)C(=O)[C@@]1(C)CO1 [carfilzomib]
ECG effects on heart rate, atrioventricular conduction, cardiac depolarization (QT, PR, QRS intervals) [1]: no clinically relevant effects | Slope (95% CI) of linear regression of AUCinf as a function of creatinine clearance [2]: 0.012 (−0.030, 0.054) | Slope (95% CI) of linear regression of AUClast (h·ng/ml) as a function of creatinine clearance [2]: 0.008 (−0.031, 0.048) | Slope (95% CI) of linear regression of Cmax (ng/ml) as a function of creatinine clearance [2]: 0.225 (−0.242, 0.692) | Slope (95% CI) of linear regression of carfilzomib clearance (l/h) as a function of creatinine clearance [2]: −0.607 (−2.129, 0.914) | CL ([2]; iv): 110 L/h | median terminal half life (t1/2) ([2]; iv): less than 60 min | Complete response [3, 7]: 0 n (%) | Minimal response [3, 7]: 3 (10.7) n (%) | Progressive disease [3, 7]: 5 (17.9) n (%) | Stable disease [3, 7]: 10 (35.7) n (%) | Very good PR [3, 7]: 0 n (%) | Overall response rate ([3]; All patients, n=47): 12 (25.5) n (%) | Complete response [3, 8]: 0 n (%) | Progressive disease [3, 8]: 10 (21.3) n (%) | Stable disease [3, 8]: 21 (44.7) n (%) | Very good PR [3, 8]: 0 n (%) | Duration of response, median (95% CI) ([3]; All patients, NE, not estimated due to censoring): 7.9 months | Complete response [3, 9]: 0 n (%) | Minimal response [3, 9]: 1 n (%) | Progressive disease [3, 9]: 0 n (%) | Stable disease [3, 9]: 3 (42.9) n (%) | Very good PR [3, 9]: 0 n (%) | Minimal response [3, 10]: 1 (9.1) n (%) | Progressive disease [3, 10]: 1 (9.1) n (%) | Duration of response, median (95% CI) ([3]; Group 1 (normal renal function), NE, not estimated due to censoring): NE (2.0–NE) | Complete response [3, 11]: 0 n (%) | Minimal response [3, 11]: 1 (12.5) n (%) | Progressive disease [3, 11]: 3 (37.5) n (%) | Stable disease [3, 11]: 1 (12.5) n (%) | Very good PR [3, 11]: 0 n (%) | Overall response rate ([3]; Group 2 (mild impairment), n=11): 3 (27.3) n (%) | Complete response [3, 12]: 0 n (%) | Minimal response [3, 12]: 1 (9.1) n (%) | Stable disease [3, 12]: 3 (27.3) n (%) | Very good PR [3, 12]: 0 n (%) | Duration of response, median (95% CI) ([3]; Group 2 (mild impairment), NE, not estimated due to censoring): NE (4.2–NE) | Complete response [3, 13]: 0 n (%) | Minimal response [3, 13]: 0 n (%) | Progressive disease [3, 13]: 0 n (%) | Stable disease [3, 13]: 3 (75.0) n (%) | Very good PR [3, 13]: 0 n (%) | Overall response rate ([3]; Group 3 (moderate impairment), n=9): 2 (22.2) n (%) | Complete response [3, 14]: 0 n (%) | Minimal response [3, 14]: 0 n (%) | Progressive disease [3, 14]: 3 (33.3) n (%) | Stable disease [3, 14]: 4 (44.4) n (%) | Very good PR [3, 14]: 0 n (%) | Duration of response, median (95% CI) ([3]; Group 3 (moderate impairment), NE, not estimated due to censoring): NE (2.3–NE) | Complete response [3, 15]: 0 n (%) | Minimal response [3, 15]: 1 (20.0) n (%) | Progressive disease [3, 15]: 2 (40.0) n (%) | Stable disease [3, 15]: 2 (40.0) n (%) | Very good PR [3, 15]: 0 n (%) | Overall response rate [3, 16]: 2 (25.0) n (%) | Complete response [3, 17]: 0 n (%) | Minimal response [3, 17]: 1 (12.5) n (%) | Progressive disease [3, 17]: 2 (25.0) n (%) | Stable disease [3, 17]: 3 (37.5) n (%) | Very good PR [3, 17]: 0 n (%) | Duration of response, median (95% CI) ([3]; Group 4 (severe impairment), NE, not estimated due to censoring): NE (7.9–NE) | Duration of response, median (95% CI) ([3]; Group 5 (chronic dialysis)): 7.9 (6.5–8.5) months | Complete response [3, 18]: 0 n (%) | Minimal response [3, 18]: 0 n (%) | Progressive disease [3, 18]: 0 n (%) | Stable disease [3, 18]: 1 (25.0) n (%) | Very good PR [3, 18]: 0 n (%) | Overall response rate [3, 19]: 3 (37.5) n (%) | Complete response [3, 20]: 0 n (%) | Minimal response [3, 20]: 0 n (%) | Progressive disease [3, 20]: 0 n (%) | Stable disease [3, 20]: 4 (50.0) n (%) | Very good PR [3, 20]: 0 n (%) | Response improved to PR after the addition of dexamethasone ([3]; nine of 28 patients who received dexamethasone before each carfilzomib dose after Cycle 2): 32.1% | total amount of carfilzomib recovered in the urine, of the administered dose ([4]; all groups, Days 1 and 15 of Cycle 1, within 24 h post-dosing): less than 1% | mean total concentration of carfilzomib in urine ([4]; group with normal renal function, day 1 of Cycle 1, 15 mg/m^2 IV, post-dose urine collection, LC MS/MS): 0.157 mg | inhibition of proteasome CT-L activity from pre-dose levels ([5]; RBCs and peripheral blood mononuclear cells, one hour after the first dose, 15 mg/m^2, range across groups): 73–87% | recovery of proteasome CT-L activity in RBCs ([5]; by the start of Cycle 2, cumulative inhibition during first treatment cycle): little to no recovery | recovery of proteasome activity in peripheral blood mononuclear cells ([5]; day 8 (5 days after the most recent dose) and beginning of Cycle 2 (12 days after dosing)): complete or near to complete | Anemia, Grades 3/4 [6, 21]: 2 | Decreased hemoglobin, Grades 3/4 [6, 21]: 1 | Dyspnea, Grades 3/4 [6, 21]: 0 | Fatigue, Grades 3/4 [6, 21]: 2 | Hypokalemia, Grades 3/4 [6, 21]: 1 | Lymphopenia, Grades 3/4 [6, 21]: 2 | Pain, Grades 3/4 [6, 21]: 0 | Pneumonia, Grades 3/4 [6, 21]: 1 | Thrombocytopenia, Grades 3/4 [6, 21]: 1 | Anemia, Grades 3/4 [6, 22]: 4 | Decreased hemoglobin, Grades 3/4 [6, 22]: 0 | Dyspnea, Grades 3/4 [6, 22]: 0 | Fatigue, Grades 3/4 [6, 22]: 1 | Hypokalemia, Grades 3/4 [6, 22]: 1 | Lymphopenia, Grades 3/4 [6, 22]: 3 | Pain, Grades 3/4 [6, 22]: 2 | Pneumonia, Grades 3/4 [6, 22]: 1 | Thrombocytopenia, Grades 3/4 [6, 22]: 5 | Anemia, Grades 3/4 [6, 23]: 5 | Decreased hemoglobin, Grades 3/4 [6, 23]: 1 | Dyspnea, Grades 3/4 [6, 23]: 2 | Fatigue, Grades 3/4 [6, 23]: 2 | Hypokalemia, Grades 3/4 [6, 23]: 0 | Lymphopenia, Grades 3/4 [6, 23]: 1 | Pain, Grades 3/4 [6, 23]: 3 | Pneumonia, Grades 3/4 [6, 23]: 3 | Thrombocytopenia, Grades 3/4 [6, 23]: 3 | Anemia, Grades 3/4 [6, 16]: 2 | Decreased hemoglobin, Grades 3/4 [6, 16]: 1 | Dyspnea, Grades 3/4 [6, 16]: 1 | Fatigue, Grades 3/4 [6, 16]: 1 | Hypokalemia, Grades 3/4 [6, 16]: 1 | Lymphopenia, Grades 3/4 [6, 16]: 2 | Pain, Grades 3/4 [6, 16]: 0 | Pneumonia, Grades 3/4 [6, 16]: 1 | Thrombocytopenia, Grades 3/4 [6, 16]: 1 | Anemia, Grades 3/4 [6, 19]: 1 | Decreased hemoglobin, Grades 3/4 [6, 19]: 1 | Dyspnea, Grades 3/4 [6, 19]: 1 | Fatigue, Grades 3/4 [6, 19]: 1 | Hypokalemia, Grades 3/4 [6, 19]: 1 | Lymphopenia, Grades 3/4 [6, 19]: 1 | Pain, Grades 3/4 [6, 19]: 0 | Pneumonia, Grades 3/4 [6, 19]: 0 | Thrombocytopenia, Grades 3/4 [6, 19]: 0 | Grade 3/4 anemia, incidence ([6]; all patients, n=50): 28.0% | Grade 3/4 fatigue, incidence ([6]; all patients, n=50): 14.0% | Grade 3/4 lymphopenia, incidence ([6]; all patients, n=50): 18.0% | Grade 3/4 thrombocytopenia, incidence ([6]; all patients, n=50): 20.0% | AEs leading to dose reduction ([6]; in vivo): 18.0% | Clinical congestive heart failure ([6]; in vivo): four | Grade 3 neuropathy during the study ([6]; in vivo): 2.0% | Serious AE acute renal failure ([6]; in vivo): 6.0% | Serious AE congestive heart failure ([6]; in vivo): 6.0% | Serious AE dehydration ([6]; in vivo): 6.0% | Serious AE pneumonia ([6]; in vivo): 16.0% | Serious AEs, patients ([6]; in vivo): 66.0% | anemia of any grade, incidence ([6]; in vivo): 50.0% | diarrhea of any grade, incidence ([6]; in vivo): 36.0% | elevations in serum creatinine from Grade ⩽2 at baseline to Grade 3 at any point after beginning treatment ([6]; in vivo): Five | fatigue of any grade, incidence ([6]; in vivo): 56.0% | incidence of treatment-emergent or worsening neuropathy of any grade ([6]; in vivo): 12.0% | nausea of any grade, incidence ([6]; in vivo): 36.0% | patients with at least one treatment-emergent AE ([6]; in vivo): 94.0% | worsening of renal function to Grade 3 ([6]; in vivo): 12.0% | Grade 3/4 infection: respiratory tract infection ([6]; n=2 of 50): 4.0% | Grade 3/4 infection: sepsis ([6]; n=2 of 50): 4.0% | Grade 3/4 infection: influenza ([6]; n=3 of 50): 6.0% | Grade 3/4 infection: bacterial pneumonia ([6]; n=6 of 50): 12.0% | deaths on study or within 30 days of discontinuation of treatment ([6]; n=50, all attributed primarily to disease progression): five | Serious AE influenza ([6]; three patients of 50): 6.0%
